Measurements published in patent US9458095B2, “Oligo-benzamide compounds and their use in treating cancers” (The Board of Regents of the University of Texas System, priority 2011, dated 2016).

Legend:
[1] = test system: ARE activity in CWR22v1 cells (ARwt and ARv7); assay: ARE-luciferase reporter in CWR22v1 cells; type: cell-based; conditions: 10 μM casodex or MDV3100, 48 h, without androgen (EtOH)
Description: FIG. 4. Effect of T6 on basal level of ARE expression in CWR22v1 cells. CWR22v1 cells were transiently transfected with ARE-luciferase. Cells were maintained for 48 h without (EtOH) and in the presence of 100 nM of peptidomimetic or volume equivalent of vehicle (DMSO) control or 10 μM of casodex or MDV3100.

ARv7 regulated genes = assay: Q-PCR of ARv7 regulated genes; type: cell-based; conditions: data not shown
Description: Finally, confirmation of the role of T6 in modulating ARv7 driven transcription was obtained by evaluation of the gene expression of ARv7 regulated genes.

[2] = molecular target: T1, PELP1 interaction with estrogen receptor (Homo sapiens, UniProt P03372); assay: PELP1-ER interaction, GST pull down assay; type: binding; conditions: TK11 500 nM, purified ER, GST-PELP1, E2
T1 construct: purchased
T1 sequence (P03372 1-595): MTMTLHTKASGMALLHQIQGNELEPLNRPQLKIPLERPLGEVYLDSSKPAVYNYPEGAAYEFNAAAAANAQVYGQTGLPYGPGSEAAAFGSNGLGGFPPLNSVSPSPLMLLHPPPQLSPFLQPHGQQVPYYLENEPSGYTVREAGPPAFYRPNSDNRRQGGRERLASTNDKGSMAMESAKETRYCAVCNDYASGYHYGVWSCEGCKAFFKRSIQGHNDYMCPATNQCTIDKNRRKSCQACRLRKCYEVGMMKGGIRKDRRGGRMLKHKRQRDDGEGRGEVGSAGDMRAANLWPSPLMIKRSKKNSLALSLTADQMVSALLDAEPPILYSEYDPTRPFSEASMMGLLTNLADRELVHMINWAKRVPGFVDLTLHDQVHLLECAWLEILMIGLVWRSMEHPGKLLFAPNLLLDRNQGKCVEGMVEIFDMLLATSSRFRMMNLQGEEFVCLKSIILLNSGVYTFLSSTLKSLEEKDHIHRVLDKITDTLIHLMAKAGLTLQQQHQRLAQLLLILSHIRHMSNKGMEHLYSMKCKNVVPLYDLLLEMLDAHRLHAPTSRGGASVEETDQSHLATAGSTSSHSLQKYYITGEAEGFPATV
Description: FIGS. 12A-C. Testing of oligo-benzamides for growth inhibition of estrogen driven proliferation. (FIG. 12A) Structure of peptidomimetics used in the assays. (FIG. 12B) Effect of tribenzamimetics on E2 driven proliferation using ZR75 model cells. (FIG. 12C) Effect of tribenzamides on PELP1-ER interaction. *, P<0.05.
Purified commercially available estrogen receptor (ER) was incubated with biotin-con or biotin-TK11 peptidomimetic in the presence of estrogen (E2). TK11 interaction with ER was determined using avidin immunoprecipitation (IP) followed by western blotting. For some experiments, MCF-7 cells were stimulated with estrogen (E2), nuclear lysates were prepared and incubated with biotin-con or biotin-TK11 peptidomimetic. TK11 interactions with endogenous ER were analyzed by avidin IP. For some experiments, purified ER, GST-PELP1 was incubated in the presence of E2 and ability of control or TK11 (500 nM) to compete PELP1 interaction with ER was determined GST pull down assay.

[3] = test system: Tamoxifen therapy resistant MCF7-HER2 and MCF7-TAM cells; assay: Therapy resistance assay (MTT), hormonal therapy resistant cells; type: cell-based, Human; conditions: tamoxifen (10^-7M) containing media, P<0.05
Description: FIG. 13. Testing of oligo-benzamides for growth inhibition of hormonal therapy resistant cells.
Tamoxifen (Tam) therapy resistant MCF7-HER2 and MCF7-TAM cells were cultured in tamoxifen (10^-7M) containing media in the presence or absence of TK11 and proliferation was measured by MTT assay (Sigma) following manufacturer's instructions.

LN229 = assay: Growth inhibition of brain cancer cell line LN229 (MTT); type: cell-based, Human; conditions: 72 h
Description: (§1) FIGS. 8A-B. Testing of oligo-benzamides for growth inhibitor of two brain cancer cell lines. (FIG. 8A) Results for cell line U87. (FIG. 8B) Results for cell line LN229. […] Human Breast cancer cells MCF7, ZR75, glioma cells U87, T98G, LN229, and the ovarian cancer cell line SKOV3 were obtained from the American Type Culture Collection (ATCC) and were maintained using ATCC recommended media. Cell proliferation rates were measured by using MTT Cell Viability Assay in 96-well micro plates. Model cells were seeded in 96-well plates (2×10^3 cells/well) in DMEM or RPMI medium containing 10% serum. After an overnight incubation, cells were treated with varying concentrations of oligo-benzamides for 72 h and growth inhibition was determined by using traditional MTT assay (Sigma) following manufacturer's instructions.

U87 = assay: Growth inhibition of brain cancer cell line U87 (MTT); type: cell-based, Human; conditions: 72 h
Description: as §1

[4] = test system: prostate cancer cell line; assay: Growth inhibition of prostate cancer cell line; type: cell-based
ovarian cancer cell line = assay: Growth inhibition of ovarian cell lines (MTT); type: cell-based; conditions: 72 h
Description: FIG. 7. Testing of oligo-benzamides for growth inhibition of ovarian cell lines.
Human Breast cancer cells MCF7, ZR75, glioma cells U87, T98G, LN229, and the ovarian cancer cell line SKOV3 were obtained from the American Type Culture Collection (ATCC) and were maintained using ATCC recommended media.
(§2) Cell proliferation rates were measured by using MTT Cell Viability Assay in 96-well micro plates. Model cells were seeded in 96-well plates (2×10^3 cells/well) in DMEM or RPMI medium containing 10% serum. After an overnight incubation, cells were treated with varying concentrations of oligo-benzamides for 72 h and growth inhibition was determined by using traditional MTT assay (Sigma) following manufacturer's instructions.

[5] = test system: triple negative breast cancer cell line; assay: Growth inhibition of breast cell lines (MTT); type: cell-based; conditions: 72 h
Description: FIG. 6. Testing of oligo-benzamides for growth inhibition of breast cell lines.
as §2

IOMM-LEE = assay: Growth inhibition of meningioma cell line IOMM-LEE; type: cell-based
Description: (§3) FIGS. 10A-B. Testing of oligo-benzamide (TK 11) for growth inhibitor of two meningioma brain cancer cell lines. (FIG. 10A) Results for cell line CH157. (FIG. 10B) Results for cell line IOMM-LEE.
as §2

[6] = test system: IOSE immortalized normal ovarian cells; assay: Growth of normal ovarian cells; type: cell-based
Description: FIG. 11. Testing of oligo-benzamides on growth of normal ovarian cells. IOSE are immortalized normal ovarian cells.
as §2

CH157 = assay: Growth inhibition of meningioma cell line CH157; type: cell-based
Description: as §3, §2

Structure (SMILES) | basal ARE activity in CWR22v1 cells [1] | expression of a panel of ARv7 regulated genes (Q-PCR) (ARv7 regulated genes) | blocking PELP1 oncogene interactions with estrogen receptor [2] | growth of hormonal therapy resistant cells [3] | growth inhibition, brain cancer cell line LN229 (LN229) | growth inhibition, brain cancer cell line U87 (U87) | potency in inhibiting prostate cancer cell line [4] | growth inhibition, ovarian cancer cell line (ovarian cancer cell line) | growth inhibition, triple negative breast cancer cell line [5] | growth inhibition, meningioma cell line IOMM-LEE (specificity versus prostate cancer cell line) (IOMM-LEE) | potency in inhibiting growth of normal ovarian cells (IOSE) [6] | growth inhibition, meningioma cell line CH157 (specificity versus prostate cancer cell line) (CH157)
CNC(=O)c1ccc(N2C(=S)N(c3ccc(C#N)c(C(F)(F)F)c3)C(=O)C2(C)C)cc1F [MDV3100, reference compound] | neither casodex nor MDV3100 could significantly affect | could not affect | – | – | – | – | – | – | – | – | – | –
CC(C)COc1cc(C(N)=O)ccc1NC(=O)c1ccc(NC(=O)c2ccc([N+](=O)[O-])c(OCCO)c2)c(OCC(C)C)c1 [TK11] | – | – | very efficient in blocking | significantly inhibited | high potency | high potency | weak potency | high potency | high potencies | higher specificity | weak potency | higher specificity
CC(O)(CS(=O)(=O)c1ccc(F)cc1)C(=O)Nc1ccc(C#N)c(C(F)(F)F)c1 (centres unmarked) [casodex, reference compound] | neither casodex nor MDV3100 could significantly affect | could not affect | – | – | – | – | – | – | – | – | – | –
